From publication PMC5859730, “Dual targeting of the cancer antioxidant network with 1,4-naphthoquinone fused Gold(I) N-heterocyclic carbene complexes” (Chemical Science, 2017)

How the values were obtained:
A549 cells [1] = experiment: Detection of intracellular ROS by flow cytometry (CM-H2DCFDA); type: cell-based, human; settings: A549, 2.5 μM, 6 h incubation, CM-H2DCFDA
PC-3 prostate = experiment: Cell proliferation (MTT assay) in PC-3 prostate cells; type: cell-based, human; settings: p53 null; Table 3
Procedure: (§1) Further anti-proliferation studies were carried out with complex 1 and its naphthoquinone component 4[H][Cl] using the following cell lines: A2780 ovarian (a wt-p53 cell line sensitive to platinum treatment), 2780CP ovarian (isogenic to A2780 but expressing multi-drug resistance (MDR)), and PC-3 prostate (p53 null) (Table 3).
(§2) Biological preparations and assays
(§3) Experimental compound preparation. Stock solutions of complexes 1–3, 4[H][Cl], auranofin (Tocris Bioscience 4600), and doxorubicin (Tocris Bioscience 2252) were dissolved in DMSO (2.5–10 mM, depending on the compound and its solubility), aliquoted, and stored at -80 °C prior to use.
(§4) Biological Materials and Cell Lines. Cell lines were obtained from the ATCC (A549 and PC-3) and Prof.
(§5) Zahid Siddik at M.D. Anderson Cancer Center (A2780 and A2780CP). Cell culture plastic ware (i.e. T-75 flasks, treated 6-well plates, treated 96-well plates, and cell scrapers) were obtained from Fisher Scientific. […]
(§6) were made. […] The medium was then removed, the resulting formazan was dissolved in […] DMSO and the respective absorbances were measured at 560–650 nm using a microplate reader (Molecular Devices, Sunnyvale, CA). Absorbance values were corrected for background and then normalized to wells containing untreated cells to allow for plate-to-plate comparisons. […]

A549 cancer cells = experiment: Confocal microscopy of ROS localisation; type: cell-based, human; settings: A549, 1.25 μM, 4 h
Procedure: To further elucidate the subcellular loci of ROS accentuation, confocal microscopy was employed to fluorescently image A549 cancer cells treated with vehicle (DMSO) and 1.25 μM complex 1 (Fig. 7d). All cells were selectively stained for visualization of ROS accentuation (green, CM-H2DCFDA), mitochondria (red, Mitotracker Red), and nuclei (blue, Hoechst).
Serum Protein Binding Studies.
aliquots were stored at -80°C.
in an Edvotek microcentrifuge. […] Samples
Detection of ROS by Flow Cytometry.
cells were treated with vehicle only.
g) at 5 °C. […] The pellet was
Control samples of unstained cells,
overnight. […] Post incubation, the media was
After incubation, the dye-
Cells were then imaged fluorescently
Lipoate Inhibition Assays.
well culture plates. […] The next day, appropriate
were added to each well. […] Afterwards, the liquid was then

zebrafish embryos = experiment: Zebrafish toxicity analysis (lethality, MTD); type: in vivo
[2] = test system: DNA duplex (5'CCGCAGCCA3'/5'TGGCTGCGG3'); experiment: Thermal denaturation of a DNA duplex; type: binding; settings: 1 molar equivalent, 5 μM complex and duplex
A2780 ovarian = experiment: Cell proliferation (MTT assay) in A2780 ovarian cells; type: cell-based, human; settings: wt-p53, platinum sensitive; Table 3
Procedure: as §1, §2, §3, §4, §5, §6

A549 cells [3] = experiment: Apoptosis by annexin-V/PI flow cytometry; type: cell-based, human; settings: A549, 1.25–20 μM, 24 h
[4] = test system: thioredoxin reductase (TrxR); settings: A549, 0.1–0.6 μM, 6 h exposure, lipoate reduction over 180 min
Procedure: Briefly, plateau phase A549 cells were exposed to variable doses of complexes 1, 3, 4[H][Cl], a 2 : 1 molar ratio of 4[H][Cl] and 5 (cocktail), auranofin, and doxorubicin for 6 h. Post treatment, the live cells were monitored colorimetrically over 180 min for their ability to reduce lipoate (Fig. 8a).

[5] = test system: A549 xenografts in zebrafish embryos; experiment: Zebrafish A549 tumor xenograft efficacy; type: in vivo; settings: 0.5 μM, 48 to 72 hpf
Procedure: The anticancer activity of the complex 1 was tested using a qualitative high throughput zebrafish tumor xenograft model (IACUC # I13009).[74] First, zebrafish embryos were divided into 7 groups at an average of 65 embryos per group. Each group was treated with vehicle (DMSO) or complex 1 at variable concentrations to identify the maximum tolerable dose (MTD) (Fig. S29 ^†). […] Therefore, efficacy studies, using zebrafish bearing human tumor xenografts were carried out with complex 1 being administered at the 0.5 μM concentration level.[75]–[77] Briefly, live human lung cancer cells (A549) were labeled with CM-DiI (red) and only live cells were transplanted via injection into the perivitelline space of 30 zebrafish embryos 24 hours post fertilization (hpf).[74],[78],[79] Tumor inoculated zebrafish embryos were allowed to grow for one day till 48 hpf. This allows for establishment of the cancer cells in the host zebrafish embryos. At 48 hpf, the xenograft bearing zebrafish embryos were split into 2 groups (15 embryos per group) and treated with vehicle (DMSO) or complex 1 at 0.5 μM for one additional day (72 hpf), and cancer cell death was observed using acridine orange staining (green). Live zebrafish-A549 tumor xenografts treated with DMSO display features consistent with the presence of tumor cells (red, white arrows in Fig. 10A). […]

2780CP ovarian = experiment: Cell proliferation (MTT assay) in 2780CP ovarian cells; type: cell-based, human; settings: isogenic to A2780, multi-drug resistance; Table 3
Procedure: as §1, §2, §3, §4, §5, §6

With `Cc1cc(C)c(-n2c3c(n(-c4c(C)cc(C)cc4C)[c]2=[Au-]=[c]2n(-c4c(C)cc(C)cc4C)c4c(n2-c2c(C)cc(C)cc2C)C(=O)c2ccccc2C4=O)C(=O)c2ccccc2C3=O)c(C)c1.[Cl][Ag-][Cl]` [Complex 1, [bis(1,3-dimesityl-4,5-naphthoquino-imidazol-2-ylidene)-gold(I)] [silver(I)dichloride]] the “Increase in intracellular ROS (fluorescence cell population shift)” value (A549 cells [1]) was 27 fold, the IC50 (PC-3 prostate) was 96 ± 17 nM and the “Subcellular locus of ROS accentuation” value (A549 cancer cells) was “ROS accentuation is arising from mitochondria”. The Lethality (zebrafish embryos; zebrafish embryos, concentrations above 1 μM) was 100%, the “LC50 (50% lethal concentration)” value (zebrafish embryos; zebrafish embryos/larvae) was 750 nM and the Mortality (zebrafish embryos; zebrafish larvae, 0.75 μM dose) was ~ 50%. For the same compound, the “Thermal stabilization of DNA” value [2] was “no thermal stabilization”, the IC50 (A2780 ovarian) was 26 ± 7 nM and the “Mechanism of cell death” value (A549 cells [3]) was “induces controlled cell death via an apoptotic mechanism”. For the same compound, the “Inhibition of TrxR at low concentrations” value [4] was “inhibition of TrxR was apparent”, the “Tumor cell death in xenografts (acridine orange staining)” value [5] was “evidence of apoptosis for the majority of tumor cells” and the IC50 (2780CP ovarian) was 54 ± 6 nM.
